From patent publication US20080131384A1, “External Preparation for Skin Whitening, Whitening Agent, Whitening Method and Method of Production of External Preparation for Skin Whitening” (Shiseido Company, Ltd., priority 2004, published 2008)

Tested on: Mouse B16 melanoma cells
Assay: Visual determination of melanin amount and number of cells in cultured B16 melanoma cells
Format: cell-based
Design: key: Good: whiter in comparison with the reference, and determined that the amount of melanin was small; Fair: slightly whiter in comparison with the reference, and determined that the amount of melanin was slightly small; Poor: equally white in comparison with the reference, and determined that the amount of melanin was almost the same
Conditions: 3 days incubation
Procedure: Mouse B16 melanoma cells were used. These were cultured in Eagle's MEM containing 10% FBS and theophylline (0.09 mg/ml) in a CO2 incubator (95% air, 5% carbon dioxide) at 37° C. After 24 hours of culture, the sample solution was added to give a final concentration of 2×10^−3 to 2×10^−5 weight % (as dried extract concentration). After further incubation for 3 days, the amount of melanin was determined visually by the following method.
A diffuser plate was placed on the lid of a well plate, the number of cells and the amount of melanin in the cells were observed by an inverted microscope and compared with a reference sample to which no plant extracts were added. The results are shown in Table I. Further, as a positive control, a similar examination as the above was performed for arbutin, which is already known to have an action suppressing melanin production.
Judgment Criteria • Good: whiter in comparison with the reference, and determined that the amount of melanin was small. • Fair: slightly whiter in comparison with the reference, and determined that the amount of melanin was slightly small. • Poor: equally white in comparison with the reference, and determined that the amount of melanin was almost the same.

OC[C@H]1O[C@@H](Oc2ccc(O)cc2)[C@H](O)[C@@H](O)[C@@H]1O [Arbutin, arbutin]
Visual Evaluation of Melanin Production (sample concentration 0.001 mass %): Fair | Visual Evaluation of Melanin Production (sample concentration 0.002 mass %): Good
